Laboratory results published in US12427212B2, “Nectin-4 binding miniproteins, conjugates and uses thereof” (Aktis Oncology, Inc., priority 2023, dated 2025).
Bridges are numbered along the chain shown (N, C = ends). Primed or numbered codes have the meaning given here. [ ]: non-standard residue; d: D form. The star is where a group is joined. DOTA = O=C(O)CN1CCN(CC(=O)O)CCN(CC(=O)*)CCN(CC(=O)O)CC1; Arg(NO2) = N=C(NCCC[C@H](N)C(=O)O)N[N+](=O)[O-]; Biotin = O=C1N[C@H]2[C@H](CS[C@H]2CCCCC(=O)*)N1; Lys(Me3) = C[N+](C)(C)CCCC[C@H](N)C(=O)O; Lys(iPr) = CC(C)NCCCC[C@H](N)C(=O)O; Lys(Me) = CNCCCC[C@H](N)C(=O)O; PEG4 = NCCOCCOCCOCCOCCC(=O)O; PEG4″ = 4(ethylene glycol)

What was measured:
[1] = test system: Opossum kidney proximal tubule cells; test: Proximal tubule epithelial cell uptake assay; format: cell-based; details: relative to control miniprotein C306; for % Uptake of C306 (Control): Table 10A, mean percent uptake in opossum kidney cells, 1 h at 37° C.; for % Uptake of C306: Table 10B, opossum kidney proximal tubule cells, modified lysine miniproteins
Description: FIG. 8 is a bar graph of the percent uptake of exemplary miniproteins tested at 20 µM in a proximal tubule epithelial cell assay vs 20 μM control peptide set at 100%. […]
Opossum kidney proximal tubule cells were plated in the upper chamber of 24-well transwell plates containing 600 μL of growth media in the lower chamber and were incubated overnight at 37° C., in 5% CO2. The following day, the media was changed, and cells were incubated an additional 24 h with orbital shaking at 146 RPM. Next, cells were washed and treated in duplicates with biotinylated exemplary miniproteins pre-complexed with streptavidin-AF647 for 1 h at 37° C., and 5% C02 with continuous orbital shaking. Following incubation, cells were washed three times with 1×PBS and lysed with RIPA buffer containing protease and phosphatase inhibitor cocktail and a universal nuclease for 30 minutes. Uptake was measured on 100 μL of lysates using a fluorimeter. Mean % uptake values of control miniprotein C306 in the presence of exemplary miniproteins are provided in TABLE 10A and summarized in FIG. 8.
Uptake of engineered Nectin-4 miniproteins with further modified lysine residues (C298-C304, as described in Example 4B) was evaluated. Percent uptake of these exemplary Nectin-4-targeting miniproteins and C251 were determined against a control miniprotein, C306, using opossum kidney proximal tubule cells as described in Example 18A. Percent uptake of C298, which has an unmodified lysine (K) at amino acid position 26 (along the length of the miniprotein sequence. SEQ ID NO: 162), was 37% in the presence of […]. All other miniproteins having a modified lysine (modified with one or more small alkyl groups of monomethyl, dimethyl, trimethyl, or isopropyl group) had (i) kidney uptake similar to that of C251 and (ii) reduced uptake as compared to C298, which has an unmodified lysine at position 26.

[2] = In vivo biodistribution of 111In-labeled miniproteins by SPECT/CT, HT-1376 xenograft; set-up: species or system mouse; details: female, athymic nude, mouse, in vivo
Source text: HT-1376 is a human cell line that expresses Nectin-4.
Humane endpoints: All animals were euthanized following the final imaging time point and carcasses were discarded according to IACUC protocols.
Image Processing: Images were generated as SPECT/CT pairs with the SPECT reported in units of activity.
Image generation: After the preprocessing described in A, individual maximum intensity projections (MIPs) were created with VivoQuant software for each subject at each time point and scaled in percent injected dose per gram (% ID/g). The CT for each image was windowed from −500 to 4500 Hounsfield Units (HU). The SPECT was windowed at various ranges to highlight different regions of uptake. Images were then stitched together using Image Magick based python tools to create montages of subjects over time and time points over groups.

[3] = In vitro metabolic stability in serum/plasma (percent parent remaining, LC-MS); format: in vitro ADME; details: mouse
Description: Exemplary miniproteins were spiked into biological matrices at initial concentration between 1-2 μM. Tested matrices were varied by species (mouse, rat, human) and type (plasma, serum, and kidney brush border membrane (kBBM) preparations tested each from 0.625-100 μg/mL protein content). Tested conditions were incubated with miniproteins at 37° C. for 4 h. At collection points of 0, 15, 30, 60, 120, 240 minutes, 50 μL of each condition were quenched by organic solvent (methanol or acetonitrile) or the addition of 4% phosphoric acid solution followed by solid-phase extraction. Fractions of each quenched timepoint were subsequently assayed for parent miniproteins concentration by high resolution LC-MS. Percent-parent-remaining-time plots were constructed from the ratio of each given time collection to the time-zero parent miniprotein. Percent-parent-remaining in mouse serum and plasma for exemplary miniproteins are recorded in TABLE 11.

| Compound | % Uptake of C306 (Control) [1] | % Uptake of C306 [1] [%] | also measured |
| --- | --- | --- | --- |
| C257: exemplary Nectin-4 miniprotein compound ({Biotin-PEG4″}-CDYDEQFFTALKRLRGADICEYIQA[Lys(Me3)]FQYLPGECIEEILDNLGCS-OH; disulfide 1-34, 20-44) [Compound C257] | 7.99% |  |  |
| CC[C@H](C)[C@@H]1NC(=O)[C@H](Cc2ccc(O)cc2)NC(=O)[C@H](CCC(N)=O)NC(=O)[C@@H]2CSSC[C@@H](C(=O)N[C@@H](CO)C(=O)O)NC(=O)CNC(=O)[C@H](CC(C)C)NC(=O)[C@H](CC(N)=O)NC(=O)[C@H](CC(=O)O)NC(=O)[C@H](CC(C)C)NC(=O)[C@H]([C@@H](C)CC)NC(=O)[C@H](CCC(=O)O)NC(=O)[C@H](CCC(=O)O)NC(=O)[C@H]([C@@H](C)CC)NC(=O)[C@H](CSSC[C@H](NC(=O)CCOCCOCCOCCOCCNC(=O)CCCC[C@@H]3SC[C@@H]4NC(=O)N[C@@H]43)C(=O)N[C@@H](CCC(=O)O)C(=O)N[C@@H](Cc3ccc(O)cc3)C(=O)N[C@@H](CC(=O)O)C(=O)N[C@@H](CCC(=O)O)C(=O)N[C@@H](CCC(=O)O)C(=O)N[C@@H](Cc3ccccc3)C(=O)N[C@@H](Cc3ccccc3)C(=O)N[C@@H]([C@@H](C)O)C(=O)N[C@@H](C)C(=O)N[C@@H](CC(C)C)C(=O)N[C@@H](C)C(=O)N[C@@H](CCCNC(=N)N)C(=O)N[C@@H](CC(C)C)C(=O)N[C@@H](CCCNC(=N)N)C(=O)NCC(=O)NCC(=O)N[C@@H](CC(=O)O)C(=O)N[C@@H]([C@@H](C)CC)C(=O)N2)NC(=O)[C@H](CC(C)C)NC(=O)[C@H](C)NC(=O)[C@@H]2CCCN2C(=O)[C@H](CC(C)C)NC(=O)[C@H](Cc2ccc(O)cc2)NC(=O)[C@H](CCC(N)=O)NC(=O)[C@H](Cc2ccccc2)NC(=O)[C@H](CCCCNC(C)C)NC(=O)[C@H](C)NC(=O)[C@H](CCC(N)=O)NC1=O [Compound C301] |  | 3 |  |
| {Biotin-PEG4}-CEYDEEFFTAL[Lys(Me)]RLRGGDICQYIQA[Lys(Me3)]FQYLPALCIEEILDNLGCS-OH (disulfide 1-34, 20-44) [Compound C302] |  | 2 |  |
| {Biotin-PEG4}-CEYDEEFFTAL[Lys(iPr)]RLRGGDICQYIQA[Lys(Me3)]FQYLPALCIEEILDNLGCS-OH (disulfide 1-34, 20-44) [Compound C304] |  | 2 |  |
| CC[C@H](C)[C@@H]1NC(=O)[C@H](Cc2ccc(O)cc2)NC(=O)[C@H](CCC(N)=O)NC(=O)[C@@H]2CSSC[C@@H](C(=O)N[C@@H](CO)C(=O)O)NC(=O)CNC(=O)[C@H](CC(C)C)NC(=O)[C@H](CC(N)=O)NC(=O)[C@H](CC(=O)O)NC(=O)[C@H](CC(C)C)NC(=O)[C@H]([C@@H](C)CC)NC(=O)[C@H](CCC(=O)O)NC(=O)[C@H](CCC(=O)O)NC(=O)[C@H]([C@@H](C)CC)NC(=O)[C@H](CSSC[C@H](NC(=O)CCOCCOCCOCCOCCNC(=O)CCCC[C@@H]3SC[C@@H]4NC(=O)N[C@@H]43)C(=O)N[C@@H](CCC(=O)O)C(=O)N[C@@H](Cc3ccc(O)cc3)C(=O)N[C@@H](CC(=O)O)C(=O)N[C@@H](CCC(=O)O)C(=O)N[C@@H](CCC(=O)O)C(=O)N[C@@H](Cc3ccccc3)C(=O)N[C@@H](Cc3ccccc3)C(=O)N[C@@H]([C@@H](C)O)C(=O)N[C@@H](C)C(=O)N[C@@H](CC(C)C)C(=O)N[C@@H](C)C(=O)N[C@@H](CCCNC(=N)N)C(=O)N[C@@H](CC(C)C)C(=O)N[C@@H](CCCNC(=N)N)C(=O)NCC(=O)NCC(=O)N[C@@H](CC(=O)O)C(=O)N[C@@H]([C@@H](C)CC)C(=O)N2)NC(=O)[C@H](CC(C)C)NC(=O)[C@H](C)NC(=O)[C@@H]2CCCN2C(=O)[C@H](CC(C)C)NC(=O)[C@H](Cc2ccc(O)cc2)NC(=O)[C@H](CCC(N)=O)NC(=O)[C@H](Cc2ccccc2)NC(=O)[C@H](CCCCNC)NC(=O)[C@H](C)NC(=O)[C@H](CCC(N)=O)NC1=O [Compound C299] |  | 3 |  |
| {Biotin-PEG4}-CEYDEQFFTALARLRGGDICEYIQARFQYLPGLCIEEILDNLGCS-OH (disulfide 1-34, 20-44) [Compound C264] | 0.859% |  |  |
| CC[C@H](C)[C@@H]1NC(=O)[C@H](Cc2ccc(O)cc2)NC(=O)[C@H](Cc2ccc(O)cc2)NC(=O)[C@@H]2CSSC[C@@H](C(=O)N[C@@H](CO)C(=O)O)NC(=O)CNC(=O)[C@H](CC(C)C)NC(=O)[C@H](CC(N)=O)NC(=O)[C@H](CC(=O)O)NC(=O)[C@H](CC(C)C)NC(=O)[C@H]([C@@H](C)CC)NC(=O)[C@H](CCC(=O)O)NC(=O)[C@H](CCC(=O)O)NC(=O)[C@H]([C@@H](C)CC)NC(=O)[C@H](CSSC[C@H](NC(=O)CCOCCOCCOCCOCCNC(=O)CCCC[C@@H]3SC[C@@H]4NC(=O)N[C@@H]43)C(=O)N[C@@H](CCC(=O)O)C(=O)N[C@@H](Cc3ccc(O)cc3)C(=O)N[C@@H](CC(=O)O)C(=O)N[C@@H](CCC(=O)O)C(=O)N[C@@H](CCC(=O)O)C(=O)N[C@@H](Cc3ccccc3)C(=O)N[C@@H](Cc3ccccc3)C(=O)N[C@@H]([C@@H](C)O)C(=O)N[C@@H](C)C(=O)N[C@@H](CC(C)C)C(=O)N[C@@H](CCCCN)C(=O)N[C@@H](CCCNC(=N)N)C(=O)N[C@@H](CC(C)C)C(=O)N[C@@H](CCCNC(=N)N)C(=O)NCC(=O)NCC(=O)N[C@@H](CC(=O)O)C(=O)N[C@@H]([C@@H](C)CC)C(=O)N2)NC(=O)[C@H](CC(C)C)NC(=O)CNC(=O)[C@@H]2CCCN2C(=O)[C@H](CC(C)C)NC(=O)[C@H](Cc2ccc(O)cc2)NC(=O)[C@H](CCC(N)=O)NC(=O)[C@H](Cc2ccccc2)NC(=O)[C@H](CO)NC(=O)[C@H](C)NC(=O)[C@H](CCC(N)=O)NC1=O [Compound C111] | 20.8% |  |  |
| C282 ({Biotin-PEG4″}-CEYDEQFFTALARLRGGDICEYIQA[Arg(NO2)]FQYLPGLCIEEILDNLGCS-OH; disulfide 1-34, 20-44) [Compound C282] | 2.14 (n = 1) % |  |  |
| CC[C@H](C)[C@@H]1NC(=O)[C@H](Cc2ccc(O)cc2)NC(=O)[C@H](CCC(=O)O)NC(=O)[C@@H]2CSSC[C@@H](C(=O)N[C@@H](CO)C(=O)O)NC(=O)CNC(=O)[C@H](CC(C)C)NC(=O)[C@H](CC(N)=O)NC(=O)[C@H](CC(=O)O)NC(=O)[C@H](CC(C)C)NC(=O)[C@H]([C@@H](C)CC)NC(=O)[C@H](CCC(=O)O)NC(=O)[C@H](CCC(=O)O)NC(=O)[C@H]([C@@H](C)CC)NC(=O)[C@H](CSSC[C@H](NC(=O)CCOCCOCCOCCOCCNC(=O)CN3CCN(CC(=O)O)CCN(CC(=O)O)CCN(CC(=O)O)CC3)C(=O)N[C@@H](CC(=O)O)C(=O)N[C@@H](Cc3ccc(O)cc3)C(=O)N[C@@H](CC(=O)O)C(=O)N[C@@H](CCC(=O)O)C(=O)N[C@@H](CCC(N)=O)C(=O)N[C@@H](Cc3ccccc3)C(=O)N[C@@H](Cc3ccccc3)C(=O)N[C@@H]([C@@H](C)O)C(=O)N[C@@H](C)C(=O)N[C@@H](CC(C)C)C(=O)N[C@@H](C)C(=O)N[C@@H](CCCNC(=N)N)C(=O)N[C@@H](CC(C)C)C(=O)N[C@@H](CCCNC(=N)N)C(=O)NCC(=O)N[C@@H](C)C(=O)N[C@@H](CC(=O)O)C(=O)N[C@@H]([C@@H](C)CC)C(=O)N2)NC(=O)[C@H](CCC(=O)O)NC(=O)CNC(=O)[C@@H]2CCCN2C(=O)[C@H](CC(C)C)NC(=O)[C@H](Cc2ccc(O)cc2)NC(=O)[C@H](CCC(N)=O)NC(=O)[C@H](Cc2ccccc2)NC(=O)[C@H](CO)NC(=O)[C@H](C)NC(=O)[C@H](CCC(N)=O)NC1=O [Compound C245] |  |  | tissue uptake at 4 h [2]: 61 %ID/g; tissue uptake at 24 h [2]: 33.5 %ID/g; half-life [3]: > 12 h; half-life ([3]; plasma): > 12 h |
| {DOTA-PEG4}-CEYDEEFFTALARLRGDDICSYIQAKFQYLPGLCIEEILDNLGCS-OH (disulfide 1-34, 20-44 (inferred)) [Compound C293] |  |  | tissue uptake at 4 h [2]: 55.8 %ID/g; tissue uptake at 24 h [2]: 32.6 %ID/g; half-life [3]: > 12 h; half-life ([3]; plasma): > 12 h |
